In one data set the target is T1, CYP2D6 (Homo sapiens, UniProt P10635).
T1 construct: co-incubated with human liver microsomes; from tissue; host or cells: human liver microsomes
Put plainly: CYP inhibition assay in human liver microsomes. Type of data set: in vitro ADME. A digest of the protocol:
(§1)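 Human liver microsomes co-incubated with isozyme-specific probe substrates and compound at 0–10.0 µM (0, 0.0300, 0.100, 0.300, 1.00, 3.00, 10.0 µM), reaction started with NADPH. Probe metabolites quantified by LC-MS/MS; IC50 derived from dose-response curves.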
(Liver microsomes are a subcellular fraction often used to study metabolism.)

For another data set, the target named is T2, CYP2C19 (Homo sapiens, UniProt P33261).
T2 construct: co-incubated with human liver microsomes; from tissue; host or cells: human liver microsomes
Put plainly: CYP inhibition assay in human liver microsomes. Type of data set: in vitro ADME. The procedure, abridged:
as §1

The target of the next data set is T3, CYP1A2 (Homo sapiens, UniProt P05177).
T3 construct: co-incubated with human liver microsomes; from tissue; host or cells: human liver microsomes
T3 sequence (P05177 1-516): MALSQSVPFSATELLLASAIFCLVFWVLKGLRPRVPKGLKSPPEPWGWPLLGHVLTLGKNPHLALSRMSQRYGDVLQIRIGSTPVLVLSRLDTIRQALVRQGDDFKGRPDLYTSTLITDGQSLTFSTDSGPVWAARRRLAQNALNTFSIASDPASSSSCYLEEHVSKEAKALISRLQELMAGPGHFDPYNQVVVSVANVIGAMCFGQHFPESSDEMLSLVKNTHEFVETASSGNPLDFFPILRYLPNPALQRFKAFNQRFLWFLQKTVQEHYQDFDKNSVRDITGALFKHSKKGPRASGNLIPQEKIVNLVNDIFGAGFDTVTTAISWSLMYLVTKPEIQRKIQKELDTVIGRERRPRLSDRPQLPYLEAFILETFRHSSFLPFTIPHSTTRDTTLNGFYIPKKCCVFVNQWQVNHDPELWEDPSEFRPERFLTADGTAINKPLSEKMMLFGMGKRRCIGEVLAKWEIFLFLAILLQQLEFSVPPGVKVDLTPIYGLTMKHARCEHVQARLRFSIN
Nature of the data set: CYP inhibition assay in human liver microsomes. The data set is classed as in vitro ADME. The procedure, abridged:
as §1

Another data set concerns the target T4, CYP2C9 (Homo sapiens, UniProt P11712).
T4 construct: co-incubated with human liver microsomes; from tissue; host or cells: human liver microsomes
Put plainly: CYP inhibition assay in human liver microsomes. The data set is classed as in vitro ADME. The procedure, abridged: as §1

Data set [1] has as its target T5, CYP3A4 (testosterone/midazolam) (Homo sapiens, UniProt P08684).
T5 construct: co-incubated with human liver microsomes; from tissue; host or cells: human liver microsomes
Put plainly: CYP inhibition assay in human liver microsomes. Type of data set: in vitro ADME. A digest of the protocol:
as §1

Data set [2] is described as follows: Mouse pharmacokinetic test. Conditions: plasma; for bioavailability: PO-30mpk vs IV-0.5mpk; for Tmax: read-out: Tmax. The data set is classed as in vivo, ICR mice. A digest of the protocol:
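Male naive ICR mice (25–30 g, n=3 per route) received a single intravenous or oral dose, with feeding resumed 4 h post-dose. Blood was centrifuged at 4°C, and plasma was stored at -80°C until analysis.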

The next data set concerns 22RV1 cells. Put plainly: Cell proliferation inhibition assay in 22RV1 cells (CellTiter-Glo, 7 days). Type of data set: cell-based, human. Conditions: Homo sapiens, 22Rv1, 168 h. A digest of the protocol: (§2)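 LNCaP and 22RV1 human prostate cancer cells, 3000 per well, exposed to graded compound for 7 days at 37°C, 5% CO2; LNCaP got 0.2 nM DHT 1 h after compound. Viability by CellTiter-Glo luminescence; IC50 from four-parameter variable-slope fit.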
(In ATP-based viability assays light output follows the ATP content of the culture.)

The next data set has as its target T6, CYP2C8 (Homo sapiens, UniProt P10632).
T6 construct: co-incubated with human liver microsomes; from tissue; host or cells: human liver microsomes
T6 sequence (P10632 1-490): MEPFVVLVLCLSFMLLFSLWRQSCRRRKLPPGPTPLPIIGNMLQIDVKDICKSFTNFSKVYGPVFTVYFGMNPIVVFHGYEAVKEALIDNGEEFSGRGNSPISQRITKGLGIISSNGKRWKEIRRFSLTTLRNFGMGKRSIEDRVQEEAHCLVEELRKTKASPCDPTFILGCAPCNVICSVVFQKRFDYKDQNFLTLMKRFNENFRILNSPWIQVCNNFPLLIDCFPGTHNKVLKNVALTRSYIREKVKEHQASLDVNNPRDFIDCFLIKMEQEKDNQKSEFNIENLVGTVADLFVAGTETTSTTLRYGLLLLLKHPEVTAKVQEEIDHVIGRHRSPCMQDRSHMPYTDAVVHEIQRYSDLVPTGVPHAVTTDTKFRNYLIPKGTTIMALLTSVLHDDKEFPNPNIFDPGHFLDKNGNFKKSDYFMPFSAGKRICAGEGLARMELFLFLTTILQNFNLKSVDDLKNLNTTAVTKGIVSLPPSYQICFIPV
Put plainly: CYP inhibition assay in human liver microsomes. Type of data set: in vitro ADME. The procedure, abridged:
as §1

Another data set concerns LNCaP cells. Nature of the data set: Cell proliferation inhibition assay in LNCaP cells (0.2 nM DHT, CellTiter-Glo, 7 days). The data set is classed as cell-based, human. Conditions: Homo sapiens, LNCaP, 168 h. A digest of the protocol: as §2
The mark [3] stands for this setting: human liver microsomes, NADPH, read-out: CYPs 2D6 (IC50).
Setting [4] is: human liver microsomes, NADPH, read-out: CYPs 2C19 (IC50).
Where [5] appears, read: human liver microsomes, NADPH, read-out: CYPs 1A2 (IC50).
The mark [6] stands for this setting: human liver microsomes, NADPH, read-out: CYPs 2C9 (IC50).
Where [7] appears, read: probe substrate midazolam, read-out: CYPs 3A4 (Midazolam) (IC50).
Where [8] appears, read: probe substrate testosterone, read-out: CYPs 3A4 (Testosterone) (IC50).
The mark [9] stands for this setting: human liver microsomes, NADPH, read-out: CYPs 2C8 (IC50).

Like-named read-outs stand apart in the source and are kept apart here.

T1 sequence (P10635 whole entry): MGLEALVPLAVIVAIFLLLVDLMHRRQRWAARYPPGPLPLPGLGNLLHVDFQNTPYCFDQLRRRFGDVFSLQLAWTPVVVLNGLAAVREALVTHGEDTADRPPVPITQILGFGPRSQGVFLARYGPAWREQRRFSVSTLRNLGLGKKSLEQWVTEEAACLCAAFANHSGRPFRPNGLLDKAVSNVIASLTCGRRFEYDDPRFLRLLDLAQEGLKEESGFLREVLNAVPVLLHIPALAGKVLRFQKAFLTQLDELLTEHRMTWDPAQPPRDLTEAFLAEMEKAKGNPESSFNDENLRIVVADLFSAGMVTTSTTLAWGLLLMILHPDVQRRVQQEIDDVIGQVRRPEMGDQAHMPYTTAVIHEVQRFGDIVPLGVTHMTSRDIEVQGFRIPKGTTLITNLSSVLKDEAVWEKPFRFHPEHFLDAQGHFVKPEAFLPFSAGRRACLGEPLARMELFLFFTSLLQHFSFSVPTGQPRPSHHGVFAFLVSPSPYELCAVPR
T4 sequence (P11712 whole entry): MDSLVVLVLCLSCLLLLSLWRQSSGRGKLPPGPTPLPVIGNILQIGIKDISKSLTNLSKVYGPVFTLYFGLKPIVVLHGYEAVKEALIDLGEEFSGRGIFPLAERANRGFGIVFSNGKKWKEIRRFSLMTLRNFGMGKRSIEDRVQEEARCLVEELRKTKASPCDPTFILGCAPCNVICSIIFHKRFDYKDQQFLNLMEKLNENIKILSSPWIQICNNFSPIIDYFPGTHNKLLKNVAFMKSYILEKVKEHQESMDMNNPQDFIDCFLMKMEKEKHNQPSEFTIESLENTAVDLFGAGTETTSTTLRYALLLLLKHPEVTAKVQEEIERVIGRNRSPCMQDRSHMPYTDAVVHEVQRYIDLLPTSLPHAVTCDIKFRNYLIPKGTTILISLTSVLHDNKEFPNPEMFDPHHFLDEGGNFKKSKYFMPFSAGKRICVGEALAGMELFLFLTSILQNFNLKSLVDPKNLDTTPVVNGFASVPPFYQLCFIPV
T5 sequence (P08684 whole entry): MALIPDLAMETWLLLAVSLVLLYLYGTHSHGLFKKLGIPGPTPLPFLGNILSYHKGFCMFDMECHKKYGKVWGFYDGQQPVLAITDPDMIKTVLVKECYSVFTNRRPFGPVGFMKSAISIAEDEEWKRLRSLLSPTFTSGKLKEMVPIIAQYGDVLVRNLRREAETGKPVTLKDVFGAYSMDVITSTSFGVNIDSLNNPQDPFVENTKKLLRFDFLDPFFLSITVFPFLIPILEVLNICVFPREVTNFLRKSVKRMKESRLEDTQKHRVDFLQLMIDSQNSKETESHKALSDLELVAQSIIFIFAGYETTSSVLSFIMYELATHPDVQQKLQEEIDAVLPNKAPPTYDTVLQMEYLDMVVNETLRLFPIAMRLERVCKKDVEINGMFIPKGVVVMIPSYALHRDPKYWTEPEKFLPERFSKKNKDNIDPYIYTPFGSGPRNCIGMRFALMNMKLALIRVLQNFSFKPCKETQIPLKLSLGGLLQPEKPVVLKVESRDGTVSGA
T2 sequence (P33261 whole entry): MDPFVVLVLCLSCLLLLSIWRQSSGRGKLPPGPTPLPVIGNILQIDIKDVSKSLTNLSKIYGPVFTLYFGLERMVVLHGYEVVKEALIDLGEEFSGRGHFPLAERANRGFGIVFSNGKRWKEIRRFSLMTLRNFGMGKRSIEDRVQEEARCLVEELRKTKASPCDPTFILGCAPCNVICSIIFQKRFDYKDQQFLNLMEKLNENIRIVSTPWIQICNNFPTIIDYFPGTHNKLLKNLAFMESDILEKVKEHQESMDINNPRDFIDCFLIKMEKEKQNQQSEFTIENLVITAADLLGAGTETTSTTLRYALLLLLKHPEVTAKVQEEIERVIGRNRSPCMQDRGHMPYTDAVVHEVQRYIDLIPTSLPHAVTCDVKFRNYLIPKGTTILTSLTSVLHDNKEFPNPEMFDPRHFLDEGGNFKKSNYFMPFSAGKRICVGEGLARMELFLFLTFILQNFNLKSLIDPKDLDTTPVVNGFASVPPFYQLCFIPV

On to `CC(C)(c1ccc(-c2ccc(OCc3ccnc(P(C)(C)=O)n3)cc2)cc1)c1cc(Cl)c(OCCCl)c(C#N)c1` [Compound 2], for which the IC50 (usually the concentration needed to halve the response being measured) on CYP2D6 (setting [3]) was more than 10 µM; on CYP2C19 (setting [4]), more than 10 µM; on CYP1A2 (setting [5]), more than 10 µM; at CYP2C9 (setting [6]) it was 6.9 µM; in data set [1] (setting [7]), more than 10 µM; in [1] (setting [8]), more than 10 µM. The IC50 in the data set with 22RV1 cells worked out at 0.77 µM. The compound further displayed a C0 in data set [2] (0.5 mg/kg, IV-0.5mpk) of 1200 ng/mL. In [2] (0.5 mg/kg, IV-0.5mpk), the clearance (in general, the volume of plasma or blood freed of the substance per unit of time) is 1.09 mL/min/kg. In addition, the bioavailability in [2] (30 mg/kg) amounted to 135%. Further, the AUC(0-inf) (in general, total exposure, with the tail of the curve extrapolated) in data set [2] (iv, 0.5 mg/kg, IV-0.5mpk) is 7.65 µg·h/mL; in data set [2] (po, 30 mg/kg, PO-30mpk), 619 µg·h/mL. Besides, the half-life – broadly, how long it takes for the measured level to halve – in data set [2] (iv, 0.5 mg/kg, IV-0.5mpk) is 8.9 h; in data set [2] (po, 30 mg/kg, PO-30mpk), 12 h. In addition, the Cmax (as a rule, the maximum level reached in the sampled fluid or tissue) in [2] (po, 30 mg/kg, PO-30mpk) was found to be 31700 ng/mL. Besides, in data set [2] (po, 30 mg/kg, PO-30mpk), the time to peak (Tmax) (commonly the time at which the peak concentration occurs) was 3.3 h.

Take `CC(C)(c1ccc(-c2cnc(OCc3ccnc(N4CC([S@@](C)(=N)=O)C4)n3)cn2)cc1)c1cc(Cl)c(OCCCl)c(C#N)c1` (single isomer, unassigned) [Compound 323B]: the IC50 on CYP2D6 (setting [3]) is more than 10 µM; at CYP2C19 (setting [4]) it was more than 10 µM; at CYP1A2 (setting [5]), more than 10 µM; at CYP2C9 (setting [6]), 2.9 µM; in data set [1] (setting [7]), more than 10 µM; in [1] (setting [8]) it was more than 10 µM. The results for the IC50 at CYP2C8 (setting [9]) and in the data set with LNCaP cells were more than 10 µM and 0.58 µM, respectively. Also, the AUC(0-inf) in data set [2] (po, 30 mg/kg, PO-30mpk) worked out at 1180 µg·h/mL. Besides, the Cmax in data set [2] (po, 30 mg/kg, PO-30mpk) is 108000 ng/mL. Further, in data set [2] (po, 30 mg/kg, PO-30mpk), the half-life was 6.05 h. In addition, the Tmax in [2] (po, 30 mg/kg, PO-30mpk) came out at 2.7 h.

On to `CC(C)(c1ccc(-c2ccc3oc(-c4ccnc(P(C)(C)=O)n4)c(N)c3c2)cc1)c1cc(Cl)c(OCCCl)c(C#N)c1` [Compound 56], for which the IC50 on CYP2D6 is more than 10 µM; against CYP2C19 it was more than 10 µM; on CYP1A2 it was more than 10 µM; against CYP2C9 it was more than 10 µM; in [1] (CYPs 3A4 (Midazolam) (IC50), probe substrate midazolam), more than 10 µM; in data set [1] (CYPs 3A4 (Testosterone) (IC50), probe substrate testosterone), more than 10 µM. The IC50 was more than 10 µM against CYP2C8 and 0.27 µM with 22RV1 cells. This compound also gave a C0 in data set [2] (0.5 mg/kg, IV-0.5mpk) of 6190 ng/mL. This compound also came in with a clearance in data set [2] (0.5 mg/kg, IV-0.5mpk) of 1.02 mL/min/kg. The bioavailability in data set [2] (30 mg/kg) worked out at 55.6%. Besides, the AUC(0-inf) in data set [2] (iv, 0.5 mg/kg, IV-0.5mpk) turned out to be 8.3 µg·h/mL; in data set [2] (po, 30 mg/kg, PO-30mpk), 277 µg·h/mL. Also, the half-life in [2] (iv, 0.5 mg/kg, IV-0.5mpk) was 6.1 h; in data set [2] (po, 30 mg/kg, PO-30mpk) it was 8.57 h. For the same compound, the peak level in data set [2] (po, 30 mg/kg, PO-30mpk) (Cmax) was 29600 ng/mL. Also, the Tmax in [2] (po, 30 mg/kg, PO-30mpk) was found to be 3.33 h.

For the compound `CC(C)(c1ccc(-c2cnc(OCc3ccnc(N4CC([S@](C)(=N)=O)C4)n3)cn2)cc1)c1cc(Cl)c(OCCCl)c(C#N)c1` (single isomer, unassigned) [Compound 323A], the IC50 was more than 10 µM on CYP2D6 (setting [3]); more than 10 µM at CYP2C19 (setting [4]); more than 10 µM at CYP1A2 (setting [5]); 8 µM at CYP2C9 (setting [6]); more than 10 µM in [1] (setting [7]); more than 10 µM in [1] (setting [8]). In addition, the IC50 at CYP2C8 (setting [9]) is more than 10 µM; with LNCaP cells it was 0.58 µM. In data set [2] (po, 30 mg/kg, PO-30mpk), this compound registered an AUC(0-inf) of 1390 µg·h/mL. In addition, the peak level in data set [2] (po, 30 mg/kg, PO-30mpk) (Cmax) was 131000 ng/mL. The compound further showed a half-life in data set [2] (po, 30 mg/kg, PO-30mpk) of 5.94 h. Besides, in [2] (po, 30 mg/kg, PO-30mpk), the Tmax came out at 3.3 h.

As for `CC(C)(c1ccc(-c2cnc(OCc3ccnc(N4CC(S(C)(=O)=O)C4)n3)cn2)cc1)c1cc(Cl)c(OCCCl)c(C#N)c1` [Compound 262], the IC50 at CYP2D6 (setting [3]) is more than 10 µM; at CYP2C19 (setting [4]), more than 10 µM; at CYP1A2 (setting [5]) it was more than 10 µM; at CYP2C9 (setting [6]), 8.3 µM; in data set [1] (setting [7]), more than 10 µM; in data set [1] (setting [8]) it was more than 10 µM. Also, the figures for the IC50 on CYP2C8 (setting [9]), with LNCaP cells and in the data set on 22RV1 cells were more than 10 µM, 0.34 µM and 0.14 µM, respectively. In addition, the C0 in data set [2] (0.5 mg/kg, IV-0.5mpk) was 1790 ng/mL. The compound further registered a clearance in data set [2] (0.5 mg/kg, IV-0.5mpk) of 0.55 mL/min/kg. For the same compound, the bioavailability in data set [2] (30 mg/kg) was 71.2%. Also, the AUC(0-inf) in data set [2] (iv, 0.5 mg/kg, IV-0.5mpk) worked out at 15.2 µg·h/mL; in [2] (po, 30 mg/kg, PO-30mpk), 648 µg·h/mL. For the same compound, the half-life in data set [2] (iv, 0.5 mg/kg, IV-0.5mpk) is 10.8 h; in [2] (po, 30 mg/kg, PO-30mpk) it was 5.2 h. In addition, the Cmax in data set [2] (po, 30 mg/kg, PO-30mpk) stood at 74700 ng/mL. For the same compound, in data set [2] (po, 30 mg/kg, PO-30mpk), the Tmax was 2 h.
